This is an account of results in patent publication US8987256B2, “Oxo-heterocyclic substituted carboxylic acid derivatives and the use thereof” (Bayer Intellectual Property GmbH, priority 2008, dated 2015).

This experiment concerns the target T1, soluble guanylate cyclase (sGC) (Rattus norvegicus, UniProt P20595).
T1 construct: made in house; host or cells: baculovirus/Sf9 insect cells
T1 sequence (P20595 1-619): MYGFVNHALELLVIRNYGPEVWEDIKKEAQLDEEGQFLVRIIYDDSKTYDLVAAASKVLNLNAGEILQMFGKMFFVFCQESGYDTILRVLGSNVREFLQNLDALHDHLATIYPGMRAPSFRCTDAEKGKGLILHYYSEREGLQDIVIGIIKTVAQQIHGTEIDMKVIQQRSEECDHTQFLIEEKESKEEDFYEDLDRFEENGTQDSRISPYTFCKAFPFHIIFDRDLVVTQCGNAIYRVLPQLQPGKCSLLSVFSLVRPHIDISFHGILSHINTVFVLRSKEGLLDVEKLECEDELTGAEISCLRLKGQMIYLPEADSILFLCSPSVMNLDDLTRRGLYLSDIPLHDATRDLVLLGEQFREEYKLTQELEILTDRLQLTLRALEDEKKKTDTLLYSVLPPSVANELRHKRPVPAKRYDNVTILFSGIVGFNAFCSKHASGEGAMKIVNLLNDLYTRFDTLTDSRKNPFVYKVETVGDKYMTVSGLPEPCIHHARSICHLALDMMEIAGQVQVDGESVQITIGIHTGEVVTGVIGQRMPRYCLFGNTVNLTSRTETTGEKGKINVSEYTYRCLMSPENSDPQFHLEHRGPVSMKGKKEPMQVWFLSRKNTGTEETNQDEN
T1 sequence (P19686 1-690 partner): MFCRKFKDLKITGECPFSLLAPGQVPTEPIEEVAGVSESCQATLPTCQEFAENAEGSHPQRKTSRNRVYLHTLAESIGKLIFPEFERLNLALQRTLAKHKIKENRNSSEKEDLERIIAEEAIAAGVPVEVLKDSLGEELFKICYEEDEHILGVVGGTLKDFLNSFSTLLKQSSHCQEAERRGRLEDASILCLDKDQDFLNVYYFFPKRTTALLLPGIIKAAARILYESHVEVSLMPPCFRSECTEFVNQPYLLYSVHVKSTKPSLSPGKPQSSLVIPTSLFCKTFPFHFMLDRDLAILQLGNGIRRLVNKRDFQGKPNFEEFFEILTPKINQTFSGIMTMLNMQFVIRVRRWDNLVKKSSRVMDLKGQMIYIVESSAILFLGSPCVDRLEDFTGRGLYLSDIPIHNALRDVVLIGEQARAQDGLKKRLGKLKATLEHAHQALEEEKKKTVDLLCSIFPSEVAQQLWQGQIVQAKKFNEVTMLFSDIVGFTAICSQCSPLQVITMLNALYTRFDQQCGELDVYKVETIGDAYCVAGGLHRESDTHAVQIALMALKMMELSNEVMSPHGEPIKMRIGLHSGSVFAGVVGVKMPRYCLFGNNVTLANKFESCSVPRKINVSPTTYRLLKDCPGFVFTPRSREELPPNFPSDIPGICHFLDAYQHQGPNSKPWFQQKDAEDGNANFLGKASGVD
Description: Activating action at the sGC enzyme in vitro (PPi detection, luciferase). It is filed as biochemical. Put shortly:
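Rat sGC (0–10 nM) preincubated 10 min at room temperature with compound in TEA buffer, pH 7.5; reaction started with GTP (1.25 mM solution). PPi formed read continuously by luciferase luminescence; stimulation expressed relative to unstimulated enzyme. Heme-free enzyme tested after 30 min with 25 μM ODQ.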

The structures appear in SMILES notation.

Take `O=C(O)CCc1cccc(NC(=O)C(c2ccc(CN3N=C(c4ccccc4)OCC3=O)cc2)C2CCCC2)c1` (single isomer, unassigned) [Example 103, 3-{3-[(Cyclopentyl{4-[(5-oxo-2-phenyl-5,6-dihydro-4H-1,3,4-oxadiazin-4-yl)methyl]phenyl}acetyl)amino]phenyl}propanoic acid]: the “MEC (minimum effective concentration), activating action at the sGC enzyme” value is recorded as 20 nM. Further, where the note is “read-out: EC50 (concentration at 50% of maximum efficacy), activating action at the sGC enzyme”, the EC50 stood at 381 nM.
